Results reported in ChEMBL document CHEMBL3588745, “Optimization of ADME Properties for Sulfonamides Leading to the Discovery of a T-Type Calcium Channel Blocker, ABT-639” (ACS Med Chem Lett, 2015).
Several values for one entry are separate records, joined by “and”; a condition that tells them apart may be missing. Identical values can stand only once. Activity calls are given as the source filed them. No cut-off for these calls is given here.

Key:
[1] = target: T1, Voltage-dependent T-type calcium channel subunit alpha-1H (Homo sapiens, UniProt O95180); experiment: Inhibition of human recombinant Cav3.2 channel
T1 sequence (O95180 whole entry): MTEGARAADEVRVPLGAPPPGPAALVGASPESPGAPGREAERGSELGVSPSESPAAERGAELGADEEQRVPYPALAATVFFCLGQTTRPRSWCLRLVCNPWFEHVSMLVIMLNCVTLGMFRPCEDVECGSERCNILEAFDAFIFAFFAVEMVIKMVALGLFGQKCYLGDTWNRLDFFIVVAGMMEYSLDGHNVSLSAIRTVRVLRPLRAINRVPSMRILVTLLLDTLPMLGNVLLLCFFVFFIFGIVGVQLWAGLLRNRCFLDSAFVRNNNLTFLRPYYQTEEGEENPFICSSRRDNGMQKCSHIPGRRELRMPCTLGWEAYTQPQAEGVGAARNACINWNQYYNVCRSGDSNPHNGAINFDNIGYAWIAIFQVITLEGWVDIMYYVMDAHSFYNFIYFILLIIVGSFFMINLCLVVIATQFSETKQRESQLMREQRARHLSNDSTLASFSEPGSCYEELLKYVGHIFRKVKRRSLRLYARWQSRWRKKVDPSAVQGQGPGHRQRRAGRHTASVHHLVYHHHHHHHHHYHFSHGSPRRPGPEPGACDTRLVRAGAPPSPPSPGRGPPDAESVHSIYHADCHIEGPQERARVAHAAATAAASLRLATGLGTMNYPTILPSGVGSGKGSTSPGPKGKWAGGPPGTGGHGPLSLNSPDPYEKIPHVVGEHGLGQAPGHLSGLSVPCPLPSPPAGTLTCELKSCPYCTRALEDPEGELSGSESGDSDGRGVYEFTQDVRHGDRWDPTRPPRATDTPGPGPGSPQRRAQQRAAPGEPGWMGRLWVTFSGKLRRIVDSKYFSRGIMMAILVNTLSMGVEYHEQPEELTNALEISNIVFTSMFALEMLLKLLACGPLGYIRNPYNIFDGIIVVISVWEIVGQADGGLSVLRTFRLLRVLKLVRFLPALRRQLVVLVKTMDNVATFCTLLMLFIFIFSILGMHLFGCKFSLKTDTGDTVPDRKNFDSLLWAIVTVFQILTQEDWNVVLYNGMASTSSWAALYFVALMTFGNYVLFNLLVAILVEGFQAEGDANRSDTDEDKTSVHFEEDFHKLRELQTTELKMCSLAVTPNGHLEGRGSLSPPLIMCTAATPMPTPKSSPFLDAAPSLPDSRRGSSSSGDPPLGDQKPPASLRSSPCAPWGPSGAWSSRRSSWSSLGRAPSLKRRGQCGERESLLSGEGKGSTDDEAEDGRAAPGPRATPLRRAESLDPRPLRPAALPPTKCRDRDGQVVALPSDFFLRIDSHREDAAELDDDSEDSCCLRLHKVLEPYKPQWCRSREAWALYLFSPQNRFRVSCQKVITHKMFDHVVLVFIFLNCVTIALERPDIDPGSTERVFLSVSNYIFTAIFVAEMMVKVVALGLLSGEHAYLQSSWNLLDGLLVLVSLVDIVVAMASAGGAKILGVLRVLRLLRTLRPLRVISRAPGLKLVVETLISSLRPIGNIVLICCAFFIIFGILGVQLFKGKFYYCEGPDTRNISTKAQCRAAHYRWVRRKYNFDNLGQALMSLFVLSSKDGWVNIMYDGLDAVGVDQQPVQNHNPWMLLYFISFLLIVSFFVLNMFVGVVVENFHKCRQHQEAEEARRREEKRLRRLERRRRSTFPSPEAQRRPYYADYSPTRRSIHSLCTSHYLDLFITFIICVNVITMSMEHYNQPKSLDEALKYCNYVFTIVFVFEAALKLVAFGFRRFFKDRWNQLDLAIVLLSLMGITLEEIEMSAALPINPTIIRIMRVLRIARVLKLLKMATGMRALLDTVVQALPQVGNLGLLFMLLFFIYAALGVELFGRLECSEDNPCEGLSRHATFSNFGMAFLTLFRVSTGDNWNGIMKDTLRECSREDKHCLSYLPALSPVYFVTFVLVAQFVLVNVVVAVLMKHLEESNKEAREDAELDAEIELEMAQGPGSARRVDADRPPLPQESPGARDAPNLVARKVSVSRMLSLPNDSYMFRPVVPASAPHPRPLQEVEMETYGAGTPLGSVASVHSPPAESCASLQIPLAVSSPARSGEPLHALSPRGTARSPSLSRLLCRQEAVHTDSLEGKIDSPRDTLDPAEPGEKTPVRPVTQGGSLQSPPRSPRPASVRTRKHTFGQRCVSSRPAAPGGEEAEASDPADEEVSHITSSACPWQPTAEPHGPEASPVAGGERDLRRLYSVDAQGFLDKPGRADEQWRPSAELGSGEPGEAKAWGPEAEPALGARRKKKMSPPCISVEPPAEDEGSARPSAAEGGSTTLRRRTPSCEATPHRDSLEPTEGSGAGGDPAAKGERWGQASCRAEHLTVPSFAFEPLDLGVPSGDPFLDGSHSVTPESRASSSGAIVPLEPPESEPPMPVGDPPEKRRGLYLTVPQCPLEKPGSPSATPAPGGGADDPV

[2] = target: T1, Voltage-dependent T-type calcium channel subunit alpha-1H; experiment: Inhibition of human recombinant Cav3.2 channel at 10 uM
[3] = Plasma clearance in rat at 5 uM/kg, iv or 30 uM/kg, po; assay type: ADME, organism-based
[4] = Stability in rat liver microsomes assessed as compound remaining at 1 uM after 30 mins; assay type: ADME; conditions: read-out: Stability
Rattus norvegicus [5] = experiment: Antinociceptive activity in Sprague-Dawley rat model of capsaicin-induced secondary mechanical hyperalgesia model assessed as attenuation of nociception at 500 uM/kg, ip administered 1 hr before behavioral testing by von Frey filaments test; assay type: functional, organism-based
[6] = Terminal phase volume of distribution in rat at 5 uM/kg, iv or 30 uM/kg, po; assay type: ADME, organism-based; conditions: in vivo, read-out: Vbeta
[7] = Solubility in 0.1 HCl solution; assay type: physicochemical
Rattus norvegicus [8] = experiment: Toxicity in orally dosed Sprague-Dawley rat assessed effect on animal motor performance by Edge test; assay type: organism-based; conditions: in vivo, po
Rattus norvegicus [9] = experiment: Toxicity in orally dosed Sprague-Dawley rat assessed effect on animal balance by Edge test; assay type: organism-based; conditions: in vivo, po
[10] = target: T2, Nuclear receptor subfamily 1 group I member 2 (Homo sapiens, UniProt O75469); experiment: Activation of PXR (unknown origin) assessed as induction of CYP3A4; assay type: ADME
T2 sequence (O75469 whole entry): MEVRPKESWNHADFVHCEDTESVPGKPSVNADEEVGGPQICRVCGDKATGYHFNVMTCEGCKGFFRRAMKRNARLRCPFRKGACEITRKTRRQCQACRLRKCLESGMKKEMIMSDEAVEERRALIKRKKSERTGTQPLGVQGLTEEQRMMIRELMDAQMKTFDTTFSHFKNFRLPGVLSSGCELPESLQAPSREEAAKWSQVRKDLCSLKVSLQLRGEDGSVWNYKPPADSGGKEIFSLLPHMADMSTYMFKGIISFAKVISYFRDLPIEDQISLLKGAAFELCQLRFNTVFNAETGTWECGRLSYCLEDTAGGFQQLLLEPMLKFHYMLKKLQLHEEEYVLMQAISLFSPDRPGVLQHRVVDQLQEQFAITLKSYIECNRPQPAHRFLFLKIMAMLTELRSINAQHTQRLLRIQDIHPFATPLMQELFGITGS

[11] = Stability in human liver microsomes assessed as compound remaining at 1 uM after 30 mins; assay type: ADME; conditions: read-out: Stability
[12] = Protein binding in rat; assay type: ADME, organism-based; conditions: plasma, read-out: PB (converted)
Plasma = experiment: Plasma concentration in Sprague-Dawley rat at 30 mg/kg, iv; assay type: ADME, organism-based; conditions: in vivo
[13] = target: Voltage-dependent T-type calcium channel subunit alpha-1H (Rattus norvegicus, UniProt Q9EQ60); experiment: Inhibition of Cav3.2 channel in rat DRG neurons assessed as reduction in LVA currents
Sequence of Voltage-dependent T-type calcium channel subunit alpha-1H (Rattus norvegicus, UniProt Q9EQ60) (Q9EQ60 whole entry): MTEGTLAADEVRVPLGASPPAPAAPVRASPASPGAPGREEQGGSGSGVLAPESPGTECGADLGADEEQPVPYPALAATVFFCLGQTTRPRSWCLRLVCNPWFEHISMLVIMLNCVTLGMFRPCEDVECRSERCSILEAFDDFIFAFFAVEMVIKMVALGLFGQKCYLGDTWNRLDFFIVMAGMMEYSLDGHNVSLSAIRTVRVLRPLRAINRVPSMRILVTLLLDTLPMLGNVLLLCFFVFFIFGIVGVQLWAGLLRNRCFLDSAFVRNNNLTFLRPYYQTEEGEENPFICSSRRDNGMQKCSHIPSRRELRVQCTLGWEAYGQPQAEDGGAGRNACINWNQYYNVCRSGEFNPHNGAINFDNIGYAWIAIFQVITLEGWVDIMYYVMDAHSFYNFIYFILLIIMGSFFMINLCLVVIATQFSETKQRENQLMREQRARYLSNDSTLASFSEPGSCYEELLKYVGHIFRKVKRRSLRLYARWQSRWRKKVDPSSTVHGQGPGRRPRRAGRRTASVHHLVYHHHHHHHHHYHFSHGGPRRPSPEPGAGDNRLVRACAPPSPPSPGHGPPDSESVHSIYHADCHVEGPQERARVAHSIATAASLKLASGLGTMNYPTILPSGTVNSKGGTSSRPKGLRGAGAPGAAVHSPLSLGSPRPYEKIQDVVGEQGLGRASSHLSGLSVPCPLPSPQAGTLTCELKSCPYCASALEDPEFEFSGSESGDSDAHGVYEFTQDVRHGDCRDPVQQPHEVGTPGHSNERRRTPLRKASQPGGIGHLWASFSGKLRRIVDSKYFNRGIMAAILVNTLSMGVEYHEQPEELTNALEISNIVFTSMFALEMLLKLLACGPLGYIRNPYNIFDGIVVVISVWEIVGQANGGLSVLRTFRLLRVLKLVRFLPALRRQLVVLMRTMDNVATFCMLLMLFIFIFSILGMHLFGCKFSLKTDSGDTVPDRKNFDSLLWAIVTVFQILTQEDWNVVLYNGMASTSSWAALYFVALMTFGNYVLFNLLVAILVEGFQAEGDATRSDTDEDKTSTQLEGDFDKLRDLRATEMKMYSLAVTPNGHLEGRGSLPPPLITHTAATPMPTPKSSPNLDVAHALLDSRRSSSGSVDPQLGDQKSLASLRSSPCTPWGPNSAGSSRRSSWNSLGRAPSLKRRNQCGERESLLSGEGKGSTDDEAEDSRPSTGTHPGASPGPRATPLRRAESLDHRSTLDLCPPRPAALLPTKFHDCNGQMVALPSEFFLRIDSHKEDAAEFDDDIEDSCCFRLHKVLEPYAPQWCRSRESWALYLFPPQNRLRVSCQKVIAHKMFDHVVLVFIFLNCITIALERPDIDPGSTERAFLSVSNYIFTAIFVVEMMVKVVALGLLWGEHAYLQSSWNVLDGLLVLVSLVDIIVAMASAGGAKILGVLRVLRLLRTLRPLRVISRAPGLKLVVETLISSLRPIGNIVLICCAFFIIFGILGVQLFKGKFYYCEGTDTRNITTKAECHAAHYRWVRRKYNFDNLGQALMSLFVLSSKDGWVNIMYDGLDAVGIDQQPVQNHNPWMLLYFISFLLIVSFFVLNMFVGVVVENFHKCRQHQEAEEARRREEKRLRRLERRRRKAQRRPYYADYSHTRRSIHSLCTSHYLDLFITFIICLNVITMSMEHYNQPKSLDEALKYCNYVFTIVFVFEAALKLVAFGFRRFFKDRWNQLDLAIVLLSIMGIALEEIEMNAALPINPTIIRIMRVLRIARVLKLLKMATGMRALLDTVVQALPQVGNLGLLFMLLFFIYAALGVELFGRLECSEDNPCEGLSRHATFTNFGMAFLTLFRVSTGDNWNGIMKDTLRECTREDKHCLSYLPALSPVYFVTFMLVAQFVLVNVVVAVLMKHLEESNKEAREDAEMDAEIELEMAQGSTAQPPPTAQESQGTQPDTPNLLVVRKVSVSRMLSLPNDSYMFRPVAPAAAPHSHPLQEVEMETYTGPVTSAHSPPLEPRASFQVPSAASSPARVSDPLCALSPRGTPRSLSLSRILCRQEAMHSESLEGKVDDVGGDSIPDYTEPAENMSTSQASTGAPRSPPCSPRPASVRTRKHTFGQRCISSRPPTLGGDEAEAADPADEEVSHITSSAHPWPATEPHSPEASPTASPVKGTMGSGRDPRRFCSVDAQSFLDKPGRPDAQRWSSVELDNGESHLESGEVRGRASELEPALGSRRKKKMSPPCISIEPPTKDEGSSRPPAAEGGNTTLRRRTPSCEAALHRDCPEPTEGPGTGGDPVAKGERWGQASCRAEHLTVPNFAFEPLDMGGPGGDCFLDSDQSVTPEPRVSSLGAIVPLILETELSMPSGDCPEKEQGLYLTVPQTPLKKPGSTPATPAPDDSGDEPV

[14] = Stability in dog liver microsomes assessed as compound remaining at 1 uM after 30 mins; assay type: ADME, Canis lupus familiaris; conditions: read-out: Stability
Rattus norvegicus [15] = experiment: Cardiovascular toxicity in Sprague-Dawley rat at 30 mg/kg, iv assessed as induction of changes in left ventricular contractility; assay type: organism-based, Heart left ventricle; conditions: in vivo
Rattus norvegicus [16] = experiment: Cardiovascular toxicity in Sprague-Dawley rat at 30 mg/kg, iv assessed as induction of changes in mean arterial pressure; assay type: organism-based, Artery; conditions: in vivo
Rattus norvegicus [17] = experiment: Antinociceptive activity in Sprague-Dawley rat model of capsaicin-induced secondary mechanical hyperalgesia model assessed as attenuation of nociception at 3 to 100 mg/kg, po administered 1 hr before behavioral testing by von Frey filaments test; assay type: functional, organism-based
[18] = Aqueous solubility in phosphate buffer at pH 7.4; assay type: physicochemical
Rattus norvegicus [19] = experiment: Cardiovascular toxicity in Sprague-Dawley rat at 30 mg/kg, iv assessed as induction of changes in heart rate; assay type: organism-based; conditions: in vivo
[20] = target: T3, Aryl hydrocarbon receptor (Homo sapiens, UniProt P35869); experiment: Activation of aryl hydrocarbon receptor (unknown origin) assessed as induction of CYP1A2 mRNA expression; assay type: ADME
T3 sequence (P35869 whole entry): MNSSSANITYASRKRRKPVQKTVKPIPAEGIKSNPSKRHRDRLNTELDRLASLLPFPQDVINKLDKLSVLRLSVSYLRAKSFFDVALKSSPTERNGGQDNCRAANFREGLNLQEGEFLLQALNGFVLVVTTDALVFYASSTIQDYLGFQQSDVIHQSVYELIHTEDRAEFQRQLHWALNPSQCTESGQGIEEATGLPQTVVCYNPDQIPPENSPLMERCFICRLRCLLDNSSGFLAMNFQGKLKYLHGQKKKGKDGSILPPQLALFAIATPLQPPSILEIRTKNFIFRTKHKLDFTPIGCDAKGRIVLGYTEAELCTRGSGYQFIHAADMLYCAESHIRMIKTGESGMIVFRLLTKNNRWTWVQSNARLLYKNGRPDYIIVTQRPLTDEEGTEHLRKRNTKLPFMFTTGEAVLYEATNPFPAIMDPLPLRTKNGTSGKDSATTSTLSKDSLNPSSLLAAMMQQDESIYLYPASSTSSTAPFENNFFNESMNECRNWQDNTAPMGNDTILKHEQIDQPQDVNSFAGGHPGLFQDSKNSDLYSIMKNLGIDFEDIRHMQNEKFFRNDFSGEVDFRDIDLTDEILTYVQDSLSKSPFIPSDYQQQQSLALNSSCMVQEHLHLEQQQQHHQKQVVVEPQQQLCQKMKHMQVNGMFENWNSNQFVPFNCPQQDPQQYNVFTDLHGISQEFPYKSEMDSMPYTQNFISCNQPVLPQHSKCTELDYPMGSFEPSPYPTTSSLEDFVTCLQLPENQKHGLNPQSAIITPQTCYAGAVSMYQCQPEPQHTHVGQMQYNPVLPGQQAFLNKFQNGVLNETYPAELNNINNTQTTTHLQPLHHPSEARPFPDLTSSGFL

[21] = Stability in monkey liver microsomes assessed as compound remaining at 1 uM after 30 mins; assay type: ADME, Macaca mulatta; conditions: rhesus monkey, read-out: Stability
Rattus norvegicus [22] = experiment: Cardiovascular toxicity in Sprague-Dawley rat at 30 mg/kg, iv assessed as induction of changes in vascular resistance; assay type: organism-based; conditions: in vivo
[23] = Protein binding in human; assay type: ADME, organism-based; conditions: plasma, read-out: PB (converted)

SMILES: O=C(c1cc(S(=O)(=O)Nc2ccccc2F)c(Cl)cc1Cl)N1CCN2CCC[C@@H]2C1
- IC50 [1]: 19 µM

SMILES: O=C(c1cccc(S(=O)(=O)Nc2ccc(C(F)(F)F)cc2)c1)N1CCN2CCC[C@H]2C1
- inhibition [2]: < 30%
- clearance [3]: 13.5 mL/min/kg

SMILES: O=C(c1cccc(S(=O)(=O)Nc2c(F)cccc2F)c1)N1CCN2CCC[C@@H]2C1
- inhibition [2]: < 30%
- clearance [3]: 15.3 mL/min/kg

SMILES: O=C(c1cccc(S(=O)(=O)Nc2ccc(C(F)(F)F)cc2)c1)N1CCN2CCC[C@@H]2C1
- inhibition [2]: < 30%
- clearance [3]: 7.5 mL/min/kg

SMILES: CC1Cc2ccccc2N1S(=O)(=O)c1cccc(C(=O)NCC2CCCCC2)c1 (configuration not stated)
- remaining at 0.5 h, 1 µM [4]: 0.1%
- IC50 [1]: 5 µM

SMILES: O=C(c1cccc(S(=O)(=O)Nc2cccc(F)c2F)c1)N1CCN2CCC[C@@H]2C1
- inhibition [2]: < 30%
- clearance [3]: 20.2 mL/min/kg

SMILES: O=C(c1cccc(S(=O)(=O)Nc2ccccc2C(F)(F)F)c1)N1CCN2CCC[C@@H]2C1
- inhibition [2]: < 30%
- clearance [3]: 12.3 mL/min/kg

SMILES: NCC1(CC(=O)O)CCCCC1
- Activity (Rattus norvegicus [5]): Active

SMILES: C[C@@H]1CN(C(=O)c2cccc(S(=O)(=O)Nc3ccc(F)cc3)c2)C[C@H](C)O1
- Vd at 5 µmol/kg [6]: 0.75 L/kg
- remaining at 0.5 h, 1 µM [4]: 46%
- clearance [3]: 27.7 mL/min/kg

SMILES: O=C(c1cccc(S(=O)(=O)Nc2cccc(F)c2F)c1)N1CCN2CCC[C@H]2C1
- inhibition [2]: < 30%
- clearance [3]: 38 mL/min/kg

SMILES: Cl.O=C(c1cc(S(=O)(=O)Nc2ccccc2F)c(F)cc1Cl)N1CCN2CCC[C@@H]2C1
- solubility [7]: > 9500 µM
- ED50 (Rattus norvegicus [8]): > 300 mg kg-1 and 114 ug ml-1
- ED50 (Rattus norvegicus [9]): > 300 mg kg-1 and 114 ug ml-1
- EC50 [10]: > 10 µM
- Vd at 5 µmol/kg [6]: 2.7 L/kg
- remaining at 0.5 h, 1 µM [11]: 95%
- fraction unbound [12]: 0.111
- remaining at 0.5 h, 1 µM [4]: 81%
- Cp (Plasma): 43900 ng/mL
- IC50 [13]: 7.6 µM
- remaining at 0.5 h, 1 µM [14]: 100%
- Activity (Rattus norvegicus [15]): Non-toxic
- Activity (Rattus norvegicus [16]): Non-toxic
- Activity (Rattus norvegicus [17]): Dose-dependent effect
- solubility [18]: 489 µM
- Activity (Rattus norvegicus [19]): Non-toxic
- EC50 [20]: > 10 µM
- IC50 [1]: 2.3 µM
- clearance [3]: 9.17 mL/min/kg
- remaining at 0.5 h, 1 µM [21]: 88%
- Activity (Rattus norvegicus [22]): Non-toxic
- fraction unbound [23]: 0.148

SMILES: CN(c1ccccc1F)S(=O)(=O)c1cc(C(=O)N2CCN3CCC[C@@H]3C2)c(Cl)cc1F
- remaining at 0.5 h, 1 µM [11]: < 0.01%
- remaining at 0.5 h, 1 µM [4]: 0.04%

SMILES: CC1CC(C)CN(C(=O)c2cccc(S(=O)(=O)N3c4ccccc4CC3C)c2)C1 (configuration not stated)
- remaining at 0.5 h, 1 µM [4]: 0.3%
- IC50 [1]: 3 µM

SMILES: O=C(c1cccc(S(=O)(=O)Nc2ccccc2F)c1)N1CCN2CCC[C@@H]2C1
- Vd at 5 µmol/kg [6]: 0.65 L/kg
- remaining at 0.5 h, 1 µM [4]: 68%
- clearance [3]: 29.8 mL/min/kg

SMILES: O=C(c1cccc(S(=O)(=O)Nc2ccccc2Cl)c1)N1CCN2CCC[C@@H]2C1
- inhibition [2]: < 30%
- clearance [3]: 32.2 mL/min/kg

SMILES: O=C(c1cccc(S(=O)(=O)Nc2ccccc2F)c1)N1CCN2CCC[C@H]2C1
- inhibition [2]: < 30%
- clearance [3]: 56 mL/min/kg
